The numbers were not newly measured in patent US20060045865A1, “Controlled regional oral delivery” (Spherics, Inc., priority 2004, published 2006), which cites them from elsewhere.

Read-outs that look alike come from different tables or passages of the source.

Assay in data set [1]: not given
The source holds these as a separate data set.

A further data set has as its system H. pylori. As to conditions: pH 5.5.

Take “1-[(4R,5s)-5-[(2-aminoethyl)amino]-N^2-(10,12-dimethyl-1-oxotetradecyl)-4-hydroxy-L-ornithine]-5-[(3IRI)-3-hydroxy-L-ornithine]pneumocandin B0 diacetate (salt) [Caspofungin acetate]”: the Solubility in water result is “freely soluble”. Besides, in data set [1] (oral), the Bioavailability is on record as 0%.
Consider `Nc1nc2c(ncn2COCCO)c(=O)[nH]1` [Acyclovir, 2-amino-1,9-dihydro-9-[(2-hydroxyethoxy)methyl]-6H-purin-6-one], for which the Bioavailability in data set [1] (oral) is recorded as 10-20%.
On to `NC(=O)N1c2ccccc2C=Cc2ccccc21` [Carbamazepine, 5H-dibenz[b,f]azepine-5-carboxamide], for which the Bioavailability in data set [1] (in vivo, po) is given as 89%.
Regarding `C#C[C@]1(O)CC[C@H]2[C@@H]3CCC4=Cc5oncc5C[C@]4(C)[C@H]3CC[C@@]21C` [Danazol, 17a-Pregna-2,4-dien-20-yno[2,3-d]-isoxazol-17-ol], the Half-life in data set [1] (oral administration) is 4 to 5 h. Moreover, in data set [1] (oral dose), the “Time to peak plasma concentration” value was not above 2 h.
Regarding `NCC1(CC(=O)O)CCCCC1` [Gabapentin], the Bioavailability in data set [1] (900 mg dose, given three times a day) is not above 60%.
As for `CC(=O)O[C@H]1C(=O)[C@@]2(C)[C@H]([C@H](OC(=O)c3ccccc3)[C@]3(O)C[C@H](OC(=O)[C@H](O)[C@@H](NC(=O)c4ccccc4)c4ccccc4)C(C)=C1C3(C)C)[C@]1(OC(C)=O)CO[C@@H]1C[C@@H]2O` [Paclitaxel], the Solubility in water entry is reported as “insoluble”.
Take `C=CC[C@@H]1/C=C(\C)C[C@H](C)C[C@H](OC)[C@H]2O[C@@](O)(C(=O)C(=O)N3CCCC[C@H]3C(=O)O[C@H](/C(C)=C/[C@@H]3CC[C@@H](O)[C@H](OC)C3)[C@H](C)[C@@H](O)CC1=O)[C@H](C)C[C@@H]2OC` [Tacrolimus]: the Solubility in water entry is “practically insoluble”. Besides, the Absolute bioavailability result in data set [1] (5 mg dose taken twice a day) is “approximately 17%”.
Consider `CC(C)[C@H](N)C(=O)OCCOCn1cnc2c(=O)[nH]c(N)nc21` [Valacyclovir], for which the Solubility in water result is “greater solubility in water than acyclovir”. Also, the Bioavailability entry in data set [1] (oral) is listed as “approximately 50%”.
`CC[C@H]1OC(=O)[C@H](C)[C@@H](O[C@H]2C[C@@](C)(OC)[C@@H](O)[C@H](C)O2)[C@H](C)[C@@H](O[C@@H]2O[C@H](C)C[C@H](N(C)C)[C@H]2O)[C@](C)(OC)C[C@@H](C)C(=O)[C@H](C)[C@@H](O)[C@]1(C)O` [clarithromycin]: in the data set with H. pylori, the Decrease in activity is more than 16 fold.
